Legend:
Assay in all cases: relative viability (nuclei count vs DMSO), 5 days (fraction); higher = more cells survive
[1] = system: BEN
Procedure, shortened: (§1)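 Each reported value is a median over duplicate plates. It expresses relative viability: treated-well nuclei count divided by vehicle-well nuclei count. Lung cancer cell lines in 1536-well plates were dosed by pin tool a day after seeding, alone with one drug or with a fixed anchor-drug dose plus five library-drug doses (not always all listed) in √10 steps, and nuclei were counted after 5 days.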

[2] = system: EMC-BAC-2
Procedure, shortened: as §1

[3] = system: HCC-15
Procedure, shortened: as §1

[4] = system: HCC-44
Procedure, shortened: as §1

[5] = system: HOP-62
Procedure, shortened: as §1

[6] = system: LC-2-ad
Procedure, shortened: as §1

[7] = system: LU99A
Procedure, shortened: as §1

[8] = system: NCI-H1395
Procedure, shortened: as §1

[9] = system: NCI-H1437
Procedure, shortened: as §1

[10] = system: NCI-H1734
Procedure, shortened: as §1

[11] = system: NCI-H1755
Procedure, shortened: as §1

[12] = system: NCI-H1915
Procedure, shortened: as §1

[13] = system: NCI-H2023
Procedure, shortened: as §1

[14] = system: NCI-H2126
Procedure, shortened: as §1

[15] = system: NCI-H2170
Procedure, shortened: as §1

[16] = system: NCI-H3122
Procedure, shortened: as §1

[17] = system: NCI-H358
Procedure, shortened: as §1

[18] = system: NCI-H650
Procedure, shortened: as §1

[19] = system: NCI-H727
Procedure, shortened: as §1

[20] = system: SW 1573
Procedure, shortened: as §1

[21] = system: SW 900
Procedure, shortened: as §1

Work on Cc1csc(=NC2CCCCC2)n1/N=C/c1ccc(O)c(O)c1O [MIM1] + Cc1cc(Nc2cc(N3CCN(C)CC3)nc(Sc3ccc(NC(=O)C4CC4)cc3)n2)n[nH]1 [Tozasertib] (partner 0.1 µM) yielded a relative viability ([1]; first compound 0.2 µM) of 0.549, a relative viability ([1]; first compound 0.6325 µM) of 0.438 and a relative viability ([1]; first compound 2 µM) of 0.498. The relative viability ([1]; first compound 6.325 µM) was 0.482, the relative viability ([1]; first compound 20 µM) was 0.346 and the relative viability ([2]; first compound 0.2 µM) was 0.219. It also gave a relative viability ([2]; first compound 0.6325 µM) of 0.3, a relative viability ([2]; first compound 2 µM) of 0.273 and a relative viability ([2]; first compound 6.325 µM) of 0.272. For the same compound, the relative viability ([2]; first compound 20 µM) was 0.202, the relative viability ([3]; first compound 0.2 µM) was 0.354 and the relative viability ([3]; first compound 0.6325 µM) was 0.35. For the same compound, the relative viability ([3]; first compound 2 µM) was 0.228, the relative viability ([3]; first compound 6.325 µM) was 0.231 and the relative viability ([3]; first compound 20 µM) was 0.137. The relative viability ([4]; first compound 0.2 µM) was 0.962, the relative viability ([4]; first compound 0.6325 µM) was 1.1 and the relative viability ([4]; first compound 2 µM) was 0.387. It also gave a relative viability ([4]; first compound 6.325 µM) of 0.584, a relative viability ([4]; first compound 20 µM) of 0.184 and a relative viability ([5]; first compound 0.2 µM) of 0.38. It also gave a relative viability ([5]; first compound 0.6325 µM) of 0.378, a relative viability ([5]; first compound 2 µM) of 0.298 and a relative viability ([5]; first compound 6.325 µM) of 0.335. It also gave a relative viability ([5]; first compound 20 µM) of 0.184, a relative viability ([6]; first compound 0.2 µM) of 0.546 and a relative viability ([6]; first compound 0.6325 µM) of 0.471. The relative viability ([6]; first compound 2 µM) was 0.367, the relative viability ([6]; first compound 6.325 µM) was 0.364 and the relative viability ([6]; first compound 20 µM) was 0.223. For the same compound, the relative viability ([7]; first compound 0.2 µM) was 0.286, the relative viability ([7]; first compound 0.6325 µM) was 0.274 and the relative viability ([7]; first compound 2 µM) was 0.288. For the same compound, the relative viability ([7]; first compound 6.325 µM) was 0.219, the relative viability ([7]; first compound 20 µM) was 0.177 and the relative viability ([8]; first compound 0.2 µM) was 0.742. For the same compound, the relative viability ([8]; first compound 0.6325 µM) was 0.791, the relative viability ([8]; first compound 2 µM) was 0.784 and the relative viability ([8]; first compound 6.325 µM) was 0.68. The relative viability ([8]; first compound 20 µM) was 0.374, the relative viability ([9]; first compound 0.2 µM) was 0.395 and the relative viability ([9]; first compound 0.6325 µM) was 0.434. The relative viability ([9]; first compound 2 µM) was 0.437, the relative viability ([9]; first compound 6.325 µM) was 0.346 and the relative viability ([9]; first compound 20 µM) was 0.197. The relative viability ([10]; first compound 0.2 µM) was 0.226, the relative viability ([10]; first compound 0.6325 µM) was 0.261 and the relative viability ([10]; first compound 2 µM) was 0.256. For the same compound, the relative viability ([10]; first compound 6.325 µM) was 0.169, the relative viability ([10]; first compound 20 µM) was 0.124 and the relative viability ([11]; first compound 0.2 µM) was 0.606. It also gave a relative viability ([11]; first compound 0.6325 µM) of 0.629, a relative viability ([11]; first compound 2 µM) of 0.563 and a relative viability ([11]; first compound 6.325 µM) of 0.477. For the same compound, the relative viability ([11]; first compound 20 µM) was 0.266, the relative viability ([12]; first compound 0.2 µM) was 0.499 and the relative viability ([12]; first compound 0.6325 µM) was 0.403. It also gave a relative viability ([12]; first compound 2 µM) of 0.337, a relative viability ([12]; first compound 6.325 µM) of 0.305 and a relative viability ([12]; first compound 20 µM) of 0.182. The relative viability ([13]; first compound 0.2 µM) was 0.32, the relative viability ([13]; first compound 0.6325 µM) was 0.345 and the relative viability ([13]; first compound 2 µM) was 0.3. For the same compound, the relative viability ([13]; first compound 6.325 µM) was 0.237, the relative viability ([13]; first compound 20 µM) was 0.109 and the relative viability ([14]; first compound 0.2 µM) was 0.831. The relative viability ([14]; first compound 0.6325 µM) was 0.832, the relative viability ([14]; first compound 2 µM) was 0.846 and the relative viability ([14]; first compound 6.325 µM) was 0.738. For the same compound, the relative viability ([14]; first compound 20 µM) was 0.403, the relative viability ([15]; first compound 0.2 µM) was 0.706 and the relative viability ([15]; first compound 0.6325 µM) was 0.721. For the same compound, the relative viability ([15]; first compound 2 µM) was 0.62, the relative viability ([15]; first compound 6.325 µM) was 0.478 and the relative viability ([15]; first compound 20 µM) was 0.206. For the same compound, the relative viability ([16]; first compound 0.2 µM) was 0.446, the relative viability ([16]; first compound 0.6325 µM) was 0.464 and the relative viability ([16]; first compound 2 µM) was 0.366. For the same compound, the relative viability ([16]; first compound 6.325 µM) was 0.155, the relative viability ([16]; first compound 20 µM) was 0.0965 and the relative viability ([17]; first compound 0.2 µM) was 0.106. For the same compound, the relative viability ([17]; first compound 0.6325 µM) was 0.0936, the relative viability ([17]; first compound 2 µM) was 0.129 and the relative viability ([17]; first compound 6.325 µM) was 0.0878. The relative viability ([17]; first compound 20 µM) was 0.0838, the relative viability ([18]; first compound 0.2 µM) was 0.774 and the relative viability ([18]; first compound 0.6325 µM) was 0.711. For the same compound, the relative viability ([18]; first compound 2 µM) was 0.748, the relative viability ([18]; first compound 6.325 µM) was 0.69 and the relative viability ([18]; first compound 20 µM) was 0.244. It also gave a relative viability ([19]; first compound 0.2 µM) of 0.513, a relative viability ([19]; first compound 0.6325 µM) of 0.536 and a relative viability ([19]; first compound 2 µM) of 0.592. The relative viability ([19]; first compound 6.325 µM) was 0.574, the relative viability ([19]; first compound 20 µM) was 0.506 and the relative viability ([20]; first compound 0.2 µM) was 0.21. The relative viability ([20]; first compound 0.6325 µM) was 0.197, the relative viability ([20]; first compound 2 µM) was 0.257 and the relative viability ([20]; first compound 6.325 µM) was 0.127. It also gave a relative viability ([20]; first compound 20 µM) of 0.128, a relative viability ([21]; first compound 0.2 µM) of 0.657 and a relative viability ([21]; first compound 0.6325 µM) of 0.722. For the same compound, the relative viability ([21]; first compound 2 µM) was 0.495, the relative viability ([21]; first compound 6.325 µM) was 0.528 and the relative viability ([21]; first compound 20 µM) was 0.183.

Reference: the supplement of paper PMC10307832
